# Source: US7598271B1, “Crystalline paroxetine methane sulfonate” (Noven Therapeutics, LLC, priority 1997, dated 2009)
# Structures can show the parent of a compound that is named as a salt. Where two headings read alike, the source gives them in different places.
# Tests used:
# [1] = Hygroscopicity test of paroxetine salts (40° C., 75% rel. hum); format: physicochemical
# From the text: (§1) In the following tables 2 and 3, examples of results of hygroscopicity tests and stability tests (in comparison with known salts of paroxetine) are presented.
# [2] = Solubility of paroxetine salts in water; format: physicochemical; conditions: for solubility: water
# [3] = Stability of paroxetine salts by HPLC (total amount of degradation); format: physicochemical
# From the text: as §1
# [4] = background statement; cited from earlier work
# [5] = causes undesired colouration during classical wet tabletting; cited from earlier work
# [6] = background statement on known salts; cited from earlier work
molecule,measurement,setting,value
"CS(=O)(=O)O.Fc1ccc([C@@H]2CCNC[C@H]2COc2ccc3c(c2)OCO3)cc1 [methane sulfonate, Paroxetine Methane Sulfonate]",water content (in %) at t = 0,[1],0.35%
same,water content (in %) at t = 4 weeks,[1],+0.04%
same,Solubility in water,[2]; 20° C.,>1000/10 min mg/ml
same,Solubility in water,[2]; 50° C.,1300 mg/mL
same,total amount of degradation by HPLC,"[3]; 20° C., time not given",not observed
same,total amount of degradation by HPLC,"[3]; 80° C., 3 months","<0.2%, 3 months"
same,Solubility in 2-Propanol,20° C.,7 mg/mL
same,Solubility in 2-Propanol,82° C.,330 mg/mL
same,Solubility in Acetone,20° C.,5 mg/mL
same,Solubility in Acetone,56° C.,37 mg/mL
same,Solubility in Ethanol,20° C.,36 mg/mL
same,Solubility in Ethanol,78° C.,250 mg/mL
same,Solubility in Ethyl acetate,20° C.,2 mg/mL
same,Solubility in Ethyl acetate,77° C.,25 mg/mL
same,Solubility in n-Hexane,20° C.,<0.05 mg/mL
same,Solubility in n-Hexane,69° C.,0.05 mg/mL
"Fc1ccc([C@@H]2CCNC[C@H]2COc2ccc3c(c2)OCO3)cc1 [hydrochloride anhydrate, paroxetine hydrochloride, reference compound]",Solubility in water,"[2]; 20° C., hydrochloride",8.2 mg/mL
same,Solubility in water,"[2]; 50° C., hydrochloride",24.2 mg/mL
"Fc1ccc([C@@H]2CCNC[C@H]2COc2ccc3c(c2)OCO3)cc1 [hydrochloride, paroxetine hydrochloride, reference compound]",water content (in %) at t = 4 weeks,[1],+2.5%
"Fc1ccc([C@@H]2CCNC[C@H]2COc2ccc3c(c2)OCO3)cc1 [hydrochloride hemihydrate, paroxetine hydrochloride hemihydrate, reference compound]",solubility,[2]; 20 °C,4900 µg/mL
same,solubility,[2]; 50 °C,12600 µg/mL
same,solubility in water (in words),[4],only limited solubility in water
same,photostability (in words),[5],limited photostability
Paroxetine Acetate,stability (in words),[6],unstable
Paroxetine Maleate [reference compound],total amount of degradation by HPLC,"[3]; 20° C., 12 months","0.2%, 12 months"
same,total amount of degradation by HPLC,"[3]; 80° C., 5 days",">50%, 5 days"
same,stability (in words),[6],unstable
"Cc1ccc(S(=O)(=O)O)cc1.Fc1ccc([C@@H]2CCNC[C@H]2COc2ccc3c(c2)OCO3)cc1 [p-toluene sulfonate, Paroxetine p-Toluene Sulfonate]",water content (in %) at t = 0,[1],0.70%
same,water content (in %) at t = 4 weeks,[1],<0.02%
same,Solubility in water,[2]; 20° C.,>1000 mg/mL
same,Solubility in water,[2]; 50° C.,>1000 mg/mL
same,total amount of degradation by HPLC,"[3]; 20° C., time not given",not observed
same,total amount of degradation by HPLC,"[3]; 80° C., 3 months","<0.2%, 3 months"
same,Solubility in 2-Propanol,20° C.,14 mg/mL
same,Solubility in 2-Propanol,82° C.,>500 mg/mL
same,Solubility in Acetone,20° C.,16 mg/mL
same,Solubility in Acetone,56° C.,125 mg/mL
same,Solubility in Ethanol,20° C.,50 mg/mL
same,Solubility in Ethanol,78° C.,>500 mg/mL
same,Solubility in Ethyl acetate,20° C.,22 mg/mL
same,Solubility in Ethyl acetate,77° C.,>500 mg/mL
same,Solubility in n-Hexane,20° C.,<0.05 mg/mL
same,Solubility in n-Hexane,69° C.,<0.05 mg/mL
